For experiment [1], the system named is insulin+ cells (beta cells). In words: Immunohistochemical characterisation of pancreata, GABA and Glu001 combination study. Conditions: 3-month old WT animals treated for a month, daily IP; vs saline. It is filed as in vivo, mice. Here is the method:
To determine if the combination of GABA and Glu001 could increase beta-cell mass wild type mice were treated with 1) saline, 2) GABA (daily IP injections of 50 μM/40 g mouse), 3) Glu001 (daily IP injections of 4 mg/kg) and 4) GABA+Glu001.

For another experiment, the system named is beta-like cells. Particulars: upon GABA administration, as mentioned in WO14048788; cited from earlier work.

`NCCCC(=O)O` [GABA, gamma-amino butyric acid]: the “insulin+ cell count / beta cell mass” value in experiment [1] is recorded as “expected increase”. In the experiment on beta-like cells, the beta-like cell number entry was “progressive increase”.
